{
  "source": "patent US20040048871A1",
  "about": "“Use of high dose intravenous methotrexate, with leucovorin rescue, to treat early multiple sclerosis and other diseases of the central nervous system” (priority 2002, published 2004)",
  "origin": "cited, not measured here",
  "key": {"[1]": {"conditions": "in vivo"}, "[2]": {"conditions": "for crossing of the blood brain barrier (BBB): in vivo"}, "[3]": {"conditions": "8 g/m^2, four hour IV infusion, with leucovorin rescue"}, "[4]": {"conditions": "2.5 g/m^2 sporadically via IV infusion, with leucovorin rescue"}, "[5]": {"conditions": "low-dose methotrexate 7.5 mg/week, orally"}},
  "note": "Read-outs that look alike come from different tables or passages of the source.",
  "data": [
    {"smiles": "O=P1(N(CCCl)CCCl)NCCCO1", "note": "(centres unmarked) [cyclophosphamide]", "values": [
      {"measurement": "efficacy against the progression of MS", "setting": "[1]", "value": "some efficacy"},
      {"measurement": "crossing of the blood brain barrier (BBB)", "setting": "[2]", "value": "do not cross the blood brain barrier"}
    ]},
    {"smiles": "Nc1nc2c(c(=O)[nH]1)N(C=O)C(CNc1ccc(C(=O)N[C@@H](CCC(=O)O)C(=O)O)cc1)CN2", "note": "(some centres unmarked) [leucovorin]", "values": [
      {"measurement": "crossing of the blood brain barrier (BBB)", "setting": "[2]", "value": "does not penetrate the BBB"}
    ]},
    {"smiles": "CN(Cc1cnc2nc(N)nc(N)c2n1)c1ccc(C(=O)N[C@@H](CCC(=O)O)C(=O)O)cc1", "note": "[methotrexate]", "values": [
      {"measurement": "effect on the course of progressive MS", "setting": "[5]", "value": "impact the course of progressive MS"},
      {"measurement": "toxicity", "setting": "[5]", "value": "minimal toxicity"},
      {"measurement": "upper extremity strength in MS patients", "setting": "oral methotrexate treatments", "value": "mild improvement"},
      {"measurement": "results in treating CNS lymphomas", "setting": "[3]", "value": "promising results"},
      {"measurement": "toxicity", "setting": "[3]", "value": "low toxicity"},
      {"measurement": "toxicity", "setting": "[4]", "value": "no significant toxicity"},
      {"measurement": "serum level sufficient to cross the BBB in cytotoxic amounts", "setting": "[2]; administered orally", "value": "not sufficient to cross the BBB in cytotoxic amounts"}
    ]},
    {"smiles": "O=C1c2c(O)ccc(O)c2C(=O)c2c(NCCNCCO)ccc(NCCNCCO)c21", "note": "[mitoxantrone]", "values": [
      {"measurement": "crossing of the blood brain barrier (BBB)", "setting": "[2]", "value": "do not cross the blood brain barrier"}
    ]}
  ]
}
